Where “and” joins values, the source holds several entries; their conditions need not be identical. Equal entries are not always repeated.
How the values were obtained:
oil palm fruit [1] = assay: Field study of fruit abscission (cumulative loose fruit and loose mass) after a single bunch-directed preharvest spray; format: in vivo, oil palm (cross between Compact and Ghana); settings: for Cumulative Loose Mass / % Difference with UTC (Cumulative Loose Fruit) / % Difference with UTC (Cumulative Loose Mass) / Cumulative Loose Fruit: single spray 100 mL/bunch; for Cumulative Loose Mass / % Difference with UTC (Cumulative Loose Fruit) / % Difference with UTC (Cumulative Loose Mass): 14 days; for % Difference with UTC (Cumulative Loose Fruit) / % Difference with UTC (Cumulative Loose Mass): vs untreated control; for Cumulative Loose Fruit: counted for 14 days
Experimental: A study was conducted in a plantation in Costa Rica to compare the effects of single bunch-directed applications of: (1) untreated control (water sprayed); (2) AVG at 500 ppm (59.5 g) active ingredient (a.i.); (3) 20 ppm (2.4 g) a.i. of 1-MCP; (4) 67 ppm (8.0 g) a.i. of 1-MCP; and (5) 200 ppm (23.8 g) a.i. of 1-MCP. Total g a.i./ha for each treatment was calculated assuming 7 bunches per palm and 170 palms per ha. In this study, AVG and 1-MCP were provided in a formulation as AVG-HC1 and 1-MCP at concentrations of 20% and 1.3%, respectively.
For each treatment, 27 palms were randomly selected covering about 15 hectares. The variety of plants used was a cross between Compact and Ghana. The plants were three years old at the time of treatment. A CO2 sprayer was used to spray all treatments (100 mL/bunch) to bunches with 1 to 4 loose fruits. The time required to spray each bunch was about 8 seconds at 20 psi using a 2.0 full cone nozzle. The treatments were applied once per bunch. Four, six, four, three and ten bunches per treatment were sprayed on Feb. 6, 13, 20, 27 and Mar. 3, 2015, respectively.
Cumulative loose fruit (CLF) and cumulative loose mass (CLM) counts were determined on a daily basis for 14 days with the exception of days 2 and 9 after initial spray as measure to objectively quantify fruit abscission. An electronic balance was used to weigh all fruit. All loose fruit on the bunch, branches and on the ground was counted and weighted.

oil palm fruit [2] = settings: postharvest application; cited from earlier work
oil palm fruit [3] = settings: preharvest application to attached bunches; cited from earlier work

Row | Structure (SMILES) | Cumulative Loose Mass (oil palm fruit [1]; 20 ppm (2.4 g a.i./ha)) [g] | % Difference with UTC (Cumulative Loose Fruit) (oil palm fruit [1]; 20 ppm (2.4 g a.i./ha)) [%] | % Difference with UTC (Cumulative Loose Mass) (oil palm fruit [1]; 20 ppm (2.4 g a.i./ha)) [%] | Cumulative Loose Fruit (oil palm fruit [1]; 20 ppm (2.4 g a.i./ha)) | Cumulative Loose Mass (oil palm fruit [1]; 67 ppm (8.0 g a.i./ha)) [g] | % Difference with UTC (Cumulative Loose Fruit) (oil palm fruit [1]; 67 ppm (8.0 g a.i./ha)) [%] | % Difference with UTC (Cumulative Loose Mass) (oil palm fruit [1]; 67 ppm (8.0 g a.i./ha)) [%] | Cumulative Loose Fruit (oil palm fruit [1]; 67 ppm (8.0 g a.i./ha)) | Cumulative Loose Mass (oil palm fruit [1]; 200 ppm (23.8 g a.i./ha)) [g] | % Difference with UTC (Cumulative Loose Fruit) (oil palm fruit [1]; 200 ppm (23.8 g a.i./ha)) [%] | % Difference with UTC (Cumulative Loose Mass) (oil palm fruit [1]; 200 ppm (23.8 g a.i./ha)) | Cumulative Loose Fruit (oil palm fruit [1]; 200 ppm (23.8 g a.i./ha)) | Effect on oil palm fruit drop (oil palm fruit [1]; preharvest bunch spray, 20, 67 and 200 ppm) | Effect on oil content (oil palm fruit [2]) | Effect on ripening of oil palm fruit (oil palm fruit [2]) | Increase of oil content (oil palm fruit [3]) [%]
1 | CC1=CC1 [1-MCP, 1-methylcyclopropene] | 1465 | 6.7 | 17.1 | 138.8 | 1163 | 28.6 | 34.2 | 106.2 | 1149 | 29.6 | 36.0% and 35.0% | 104.7 | delayed palm oil fruit drop | reduced oil content | delayed ripening | 
2 | O=P(O)(O)CCCl [ethephon, 2-chloroethyl phosphonic acid] |  |  |  |  |  |  |  |  |  |  |  |  |  |  |  | 7

Reference: patent US9538749B2, “Methods for increasing oil palm yield” (Valent BioSciences Corporation, priority 2014, dated 2017)
